The source of these data is US20040010038A1, “Propargylamino indan derivatives and propargylamino tetralin derivatives as brain-selective MAO inhibitors” (priority 2002, published 2004).

Where a name gives a salt, the structure may show the parent alone.

The target of one test is T1, MAO-B (Rattus norvegicus, UniProt P19643).
T1 construct: The MAO enzyme source was a homogenate of rat brain in 0.3 M sucrose 1:20 w/v; from tissue; host or cells: rat brain homogenate
T1 sequence (P19643 1-520): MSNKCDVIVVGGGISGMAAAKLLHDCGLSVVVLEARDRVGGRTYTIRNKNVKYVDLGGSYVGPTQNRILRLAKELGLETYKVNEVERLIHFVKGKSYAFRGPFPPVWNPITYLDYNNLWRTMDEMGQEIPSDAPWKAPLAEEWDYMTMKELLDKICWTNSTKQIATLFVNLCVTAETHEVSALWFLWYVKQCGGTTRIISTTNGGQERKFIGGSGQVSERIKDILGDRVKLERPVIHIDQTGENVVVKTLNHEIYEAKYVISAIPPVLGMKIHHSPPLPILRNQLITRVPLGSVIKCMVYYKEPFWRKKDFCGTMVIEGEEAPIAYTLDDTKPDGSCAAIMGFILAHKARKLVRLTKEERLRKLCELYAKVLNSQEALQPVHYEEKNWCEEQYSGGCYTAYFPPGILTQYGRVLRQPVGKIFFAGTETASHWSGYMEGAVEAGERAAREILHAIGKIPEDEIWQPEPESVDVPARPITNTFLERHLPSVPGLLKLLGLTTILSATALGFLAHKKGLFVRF
The experiment in a line: Inhibition of MAO activity in vitro (PEA as substrate). It is filed as biochemical. Particulars: rat brain homogenate, 60 min pre-incubation at 37° C., 14C PEA substrate; read-out: In vitro IC50 B. As for the experimental part:
(§1) Inhibition of MAO Activity In Vitro Experimental Protocol
(§2) The reaction was then stopped by addition of citric acid. Radioactivity indicates the production of 5-HT and PEA metabolites formed as a result of MAO activity.
(§3) A mixture of toluene: ethyl acetate (1:1) was added to the reaction and mixed for 10 minutes, followed by 5 minutes of centrifugation at 1760 g. The upper phase was taken for radioactive determination by liquid scintillation spectrometry.
The IC50 is the midpoint of a concentration-inhibition curve. `C#CCN(C)[C@H]1CCc2ccc(OC(=O)C(C)(C)C)cc21` [Cmpd 129]: the IC50 came to 17 µM.
On the same count and under the same terms, the figure for `C#CCN[C@@H]1CCc2ccc(OC(=O)N(C)CC)cc21` [Cmpd 147] is over 1000 µM; for “(S)-3-prop-2-ynylamino-5-indanol mesylate [Cmpd 100]” it is 300 µM; for `C#CCN(C)[C@@H]1CCc2ccc(OC(=O)c3ccccc3)cc21` [Cmpd 128] it is 1 µM.
Take `C#CCNC1CCCc2ccc(OC(=O)N(C)CC)cc21` (stereo not shown) [Cmpd 148]: the concentration for half-maximal inhibition (IC50) is 100 µM.
The same measure, in the same setting: the figure for `C#CCN(C)C1CCc2c(OC(C)=O)cccc21` (racemic) [Cmpd 119] is 0.11 µM; for `C#CCN(C)C1CCc2cccc(OC(=O)N(C)CC)c21` (stereo not shown) [Cmpd 141] it is 100 µM.
The same measure, in the same setting: for `C#CCN(C)[C@@H]1CCc2ccc(O)cc21` [Cmpd 114, (R)3-(methyl-prop-2-ynylamino)-5-indanol] the value was 0.03 µM; for `C#CCN(C)[C@@H]1CCc2ccc(OC(=O)c3ccccc3C)cc21` [Cmpd 132], 9.9 µM.
Consider `C#CCN(C)C1CCc2cc(O)c(O)cc2C1` (stereo not shown) [Cmpd 139, 6-(methyl-prop-2-ynylamino)-2,3-tetralindiol], for which the concentration for half-maximal inhibition (IC50) turned out to be 41 µM.
Same read-out and setting: the figure for `C#CCN(C)[C@H]1CCc2ccc(OC(=O)c3ccccc3)cc21` [Cmpd 127, Benzoic Acid (S)-3-(Methyl-Prop-2-Ynyl-Amino)-Indan-5-Yl Ester HCl] is 5.6 µM; for `C#CCN(C)C1CCc2c(O)cccc21` (racemic) [Cmpd 117, 1-(methyl-prop-2-ynylamino)-4-indanol] it is 0.07 µM.
On the same count and under the same terms, for `C#CCN(C)[C@@H]1CCc2ccc(OC(=O)C(C)(C)C)cc21` [Cmpd 130] the value was 2.5 µM; for `C#CCN(C)[C@@H]1CCc2ccc(OC(=O)CCCC)cc21` [Cmpd 126], 0.13 µM.

The target of another test is T1, MAO-B. Description: Inhibition of MAO activity in vivo, MAO-B. Particulars: oral, 50 μmol/kg, 7 days, tissue not stated, read-out: % inhibition B. The protocol:
(§4) Inhibition of MAO Activity In Vivo: Chronic Treatment Experimental Protocol
(§5) Rats were treated with the test compounds (Table 5) at several dose levels by oral administration, one dose daily for 7-21 days, and decapitated 2 hours after the last dose. The activities of MAO-A and MAO-B were determined in the brain, liver and intestine as described in the previous example. Inhibition of MAO activity was calculated by dividing MAO activity in the treated rats by MAO activity in the control rats (saline treated, MAO activity in these rats was taken as 100%).
as §3
As a reminder, the inhibition is the share of the control response that was lost under treatment. Take `C#CCN[C@@H]1CCc2ccc(OC(=O)N(C)CC)cc21` [Cmpd 146]: the inhibition at 50 µmol/kg worked out at 52%.

The test is the same for the next values; noted with them: oral, 150 μmol/kg, 7 days, tissue not stated.
The molecule `C#CCN[C@@H]1CCc2ccc(OC(=O)N(C)CC)cc21` [Cmpd 146] returned an inhibition at 150 µmol/kg of 87%.

The same test, now with this note: oral, 1 mg/kg (2.9 μmol/kg), 7 days, tissue not stated.
The molecule `C#CCN(C)[C@@H]1CCc2ccc(OC(=O)c3ccccc3)cc21` [Cmpd 128] returned an inhibition at 1 mg/kg of 77%.

The test is the same for the next values; noted with them: oral, 5 mg/kg (15 μmol/kg), 7 days, tissue not stated, read-out: % inhibition B.
Turning to `C#CCN(C)[C@@H]1CCc2ccc(OC(=O)c3ccccc3)cc21` [Cmpd 128], the inhibition at 5 mg/kg was determined as 91%.

The test is the same for the next values; noted with them: oral, 15 mg/kg (44 μmol/kg), 7 days, tissue not stated.
`C#CCN(C)[C@@H]1CCc2ccc(OC(=O)c3ccccc3)cc21` [Cmpd 128] showed an inhibition at 15 mg/kg of 91%.

The same test, now with this note: po, read-out: % inhibition B.
`C#CCN[C@@H]1CCc2ccc(O)cc21` [Cmpd 101, (R)-3-prop-2-ynylamino-5-indanol mesylate]: the inhibition at 5 mg/kg is 47% and the inhibition at 25 mg/kg turned out to be 65%.

A further test addresses T1, MAO-B. Description: Inhibition of MAO activity in vivo, MAO-B. Particulars: 10 μmol/kg (3.2-4 mg/kg), acute, tissue not stated.
Molecule `C#CCN(C)[C@@H]1CCc2ccc(OC(=O)c3ccccc3C)cc21` [Cmpd 132] returned an inhibition at 10 µmol/kg of 37%.
With `C#CCN(C)[C@@H]1CCc2ccc(OC(=O)C(C)(C)C)cc21` [Cmpd 130], the inhibition at 10 µmol/kg is 22%.

Staying with this test, now noted: oral, 100 μmol/kg, 5 days, tissue not stated.
Turning to `C#CCN[C@@H]1CCc2ccc(OC(=O)N(C)CC)cc21` [Cmpd 146], the inhibition at 100 µmol/kg came out at 74%.

A further test has as its target T2, MAO-A (Rattus norvegicus, UniProt P21396).
T2 construct: The MAO enzyme source was a homogenate of rat brain in 0.3 M sucrose 1:20 w/v; from tissue; host or cells: rat brain homogenate
T2 sequence (P21396 1-526): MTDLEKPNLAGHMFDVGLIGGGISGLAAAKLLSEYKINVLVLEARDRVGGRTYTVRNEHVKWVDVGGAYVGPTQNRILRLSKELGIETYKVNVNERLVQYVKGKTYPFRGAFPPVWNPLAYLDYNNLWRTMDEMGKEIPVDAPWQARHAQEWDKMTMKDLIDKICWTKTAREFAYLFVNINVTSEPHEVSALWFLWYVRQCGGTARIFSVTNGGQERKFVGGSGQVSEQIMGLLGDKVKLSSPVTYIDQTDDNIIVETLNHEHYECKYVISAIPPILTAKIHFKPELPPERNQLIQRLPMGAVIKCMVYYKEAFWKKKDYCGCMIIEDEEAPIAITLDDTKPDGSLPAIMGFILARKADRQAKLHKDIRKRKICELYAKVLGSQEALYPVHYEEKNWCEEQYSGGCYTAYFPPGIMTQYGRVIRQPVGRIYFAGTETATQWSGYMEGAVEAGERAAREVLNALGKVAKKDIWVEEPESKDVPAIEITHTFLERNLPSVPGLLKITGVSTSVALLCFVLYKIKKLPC
Description: Inhibition of MAO activity in vivo, MAO-A. The note with it: 10 μmol/kg (3.2-4 mg/kg), acute, tissue not stated.
As for `C#CCN(C)[C@@H]1CCc2ccc(OC(=O)c3ccccc3C)cc21` [Cmpd 132], the inhibition at 10 µmol/kg was determined as 41%.
On the same count and under the same terms, the figure for `C#CCN(C)[C@@H]1CCc2ccc(OC(=O)C(C)(C)C)cc21` [Cmpd 130] is 24%.

The same test, now with this note: oral, 100 μmol/kg, 5 days, tissue not stated.
Consider `C#CCN[C@@H]1CCc2ccc(OC(=O)N(C)CC)cc21` [Cmpd 146], for which the inhibition at 100 µmol/kg amounted to 56%.

The target of another test is T2, MAO-A. Description: Inhibition of MAO activity in vivo, MAO-A. Particulars: oral, 50 μmol/kg, 7 days, tissue not stated, read-out: % inhibition A. As for the experimental part:
as §4, §5, §3
With `C#CCN[C@@H]1CCc2ccc(OC(=O)N(C)CC)cc21` [Cmpd 146], the inhibition at 50 µmol/kg is 46%.

The test is the same for the next values; noted with them: oral, 150 μmol/kg, 7 days, tissue not stated.
`C#CCN[C@@H]1CCc2ccc(OC(=O)N(C)CC)cc21` [Cmpd 146] yielded an inhibition at 150 µmol/kg of 74%.

The test is the same for the next values; noted with them: oral, 1 mg/kg (2.9 μmol/kg), 7 days, tissue not stated.
With `C#CCN(C)[C@@H]1CCc2ccc(OC(=O)c3ccccc3)cc21` [Cmpd 128], testing at 1 mg/kg gave an inhibition of 87%.

The same test, now with this note: oral, 5 mg/kg (15 μmol/kg), 7 days, tissue not stated, read-out: % inhibition A.
On to `C#CCN(C)[C@@H]1CCc2ccc(OC(=O)c3ccccc3)cc21` [Cmpd 128], for which the inhibition at 5 mg/kg came to 95%.

Still in this test, the particulars now being: oral, 15 mg/kg (44 μmol/kg), 7 days, tissue not stated.
`C#CCN(C)[C@@H]1CCc2ccc(OC(=O)c3ccccc3)cc21` [Cmpd 128] yielded an inhibition at 15 mg/kg of 98%.

Still in this test, the particulars now being: po, read-out: % inhibition A.
Take `C#CCN[C@@H]1CCc2ccc(O)cc21` [Cmpd 101, (R)-3-prop-2-ynylamino-5-indanol mesylate]: the inhibition at 5 mg/kg was determined as 35% and the inhibition at 25 mg/kg was determined as 57%.

For the next test, the target named is T2, MAO-A. The experiment in a line: Inhibition of MAO activity in vitro (5-HT as substrate). Particulars: rat brain homogenate, 60 min pre-incubation at 37° C., 14C 5-HT substrate; read-out: In vitro IC50 A. It is filed as biochemical. As for the experimental part: as §1, §2, §3
On to `C#CCN(C)[C@H]1CCc2ccc(OC(=O)C(C)(C)C)cc21` [Cmpd 129], for which the IC50 amounted to 2500 nM.
Same read-out and setting: for `C#CCN[C@@H]1CCc2ccc(OC(=O)N(C)CC)cc21` [Cmpd 147] the value was 550000 nM.
The same measure, in the same setting: for “(S)-3-prop-2-ynylamino-5-indanol mesylate [Cmpd 100]” the value was 500000 nM; for `C#CCN(C)[C@@H]1CCc2ccc(OC(=O)c3ccccc3)cc21` [Cmpd 128], 200 nM.
Still for that read-out and setting: for `C#CCNC1CCCc2ccc(OC(=O)N(C)CC)cc21` (stereo not shown) [Cmpd 148] the value was 500000 nM.
As for `C#CCN(C)C1CCc2c(OC(C)=O)cccc21` (racemic) [Cmpd 119], the IC50 stood at 18 nM.
On the same count and under the same terms, the figure for `C#CCN(C)C1CCc2cccc(OC(=O)N(C)CC)c21` (stereo not shown) [Cmpd 141] is 65000 nM; for `C#CCN(C)[C@@H]1CCc2ccc(O)cc21` [Cmpd 114, (R)3-(methyl-prop-2-ynylamino)-5-indanol] it is 10 nM.
As to `C#CCN(C)[C@@H]1CCc2ccc(OC(=O)c3ccccc3C)cc21` [Cmpd 132], the half-maximal inhibitory concentration (IC50) was found to be 1100 nM.
On to `C#CCN(C)C1CCc2cc(O)c(O)cc2C1` (stereo not shown) [Cmpd 139, 6-(methyl-prop-2-ynylamino)-2,3-tetralindiol], for which the IC50 turned out to be 4500 nM.
Same read-out and setting: for `C#CCN(C)[C@H]1CCc2ccc(OC(=O)c3ccccc3)cc21` [Cmpd 127, Benzoic Acid (S)-3-(Methyl-Prop-2-Ynyl-Amino)-Indan-5-Yl Ester HCl] the value was 3800 nM.
Still for that read-out and setting: for `C#CCN(C)C1CCc2c(O)cccc21` (racemic) [Cmpd 117, 1-(methyl-prop-2-ynylamino)-4-indanol] the value was 8.3 nM; for `C#CCN(C)[C@@H]1CCc2ccc(OC(=O)C(C)(C)C)cc21` [Cmpd 130], 560 nM.
On the same count and under the same terms, the figure for `C#CCN(C)[C@@H]1CCc2ccc(OC(=O)CCCC)cc21` [Cmpd 126] is 58 nM.

The test is the same for the next values; noted with them: read-out: In vitro IC50 A.
`C#CCN[C@@H]1CCc2ccc(OC(=O)N(C)CC)cc21` [Cmpd 146]: the IC50 amounted to 300000 nM.
